Data reported in US12071453B2, “Neuroactive steroids, compositions, and uses thereof” (Sage Therapeutics, Inc., priority 2013, dated 2024).

Each molecule was assayed against T1, GABAA receptors composed of the α1β2γ2 subunits (GABRA1/GABRB2/GABRG2) (Homo sapiens, UniProt P14867+P47870) (assay: Two Electrode Voltage Clamp (TEVC), GABA receptor potentiation in Xenopus laevis oocytes, α1β2γ2). Conditions: 10 μM compound, 10 μM GABA, read-out: GABA (α1β2γ2) % efficacy at 10 μM.
T1 construct: expressed in transfected cells; host or cells: Xenopus laevis oocytes, injected (ratio 1:1:1)
Type: cell-based
Protocol: The Two Electrode Voltage Clamp (TEVC) technique was used to investigate the effects of compounds at a concentration of 10 μM on GABAA receptors composed of the α1β2γ2 or α4β3δ subunits expressed in oocytes from the Xenopus laevis. GABA-evoked currents were recorded from oocytes that expressed the GABA receptors and the modulatory effects of the test items on these currents were investigated.
Ovaries were harvested from Xenopus laevis females that had been deeply anesthetized by cooling at 4° C. and immersion in Tricaine methanesulfonate (MS-222 at a concentration of 150 mg/L) in sodium bicarbonate (300 mg/L). Once anesthetized the animal was decapitated and pithed following the rules of animal rights from the Geneva canton. A small piece of ovary was isolated for immediate preparation while the remaining part was placed at 4° C. in a sterile Barth solution containing in mM NaCl 88, KCl 1, NaHCO3 2.4, HEPES 10, MgSO4·7H2O 0.82, Ca(NO3)2·4H2O 0.33, CaCl2·6H2O 0.41, at pH 7.4, and supplemented with 20 μg/ml of kanamycin, 100 unit/ml penicillin and 100 μg/ml streptomycin. All recordings were performed at 18° C. and cells were super-fused with medium containing in mM: NaCl 82.5, KCl 2.5, HEPES 5, CaCl2·2H2O, ·6H2O 1, pH 7.4.
Plasmids containing the RNAs of the human GABRA1/GABRB2/GABRG2 and GABRA4/GABRB3/GABRD genes were injected into oocytes using a proprietary automated injection device (Hogg el al., J. Neurosci. Methods, (2008) 169: 65-75). These genes encode for the α1β2γ2 and α4β3δ GABAA subunits respectively. Receptor expression was assessed using electrophysiology at least two days later. The ratio of RNA injection for α1β2γ2 was 1:1:1 and for α4β3δ was 5:1:5. Electrophysiological recordings were made using an automated process equipped with standard TEVC and data were captured and analyzed using a proprietary data acquisition and analysis software running under Matlab (Mathworks Inc.). The membrane potential of the oocytes was maintained at −80 mV throughout the experiments. To explore the effects of proprietary compounds, currents were evoked by applying 10 μM (α1β2γ2) or 3 μM (α4β3δ) GABA for 30 s. These concentrations approximated the EC50 concentration of GABA at each receptor subtype. Oocytes were then re-exposed to GABA again for 30 s. 15 s after beginning the GABA application, test article was co-applied at a concentration of 10 μM for 15 s. Potentiation of the peak current was assessed. Data was filtered at 10 Hz, captured at 100 Hz and analyzed using proprietary data acquisition and analysis software running under Matlab (Mathworks Inc.). For statistical analysis values were computed either with Excel (Microsoft) or Matlab (mathworks Inc.). To obtain mean measurements with standard deviations, all experiments were carried out using at least three cells.

T1 sequence (P14867 28-456): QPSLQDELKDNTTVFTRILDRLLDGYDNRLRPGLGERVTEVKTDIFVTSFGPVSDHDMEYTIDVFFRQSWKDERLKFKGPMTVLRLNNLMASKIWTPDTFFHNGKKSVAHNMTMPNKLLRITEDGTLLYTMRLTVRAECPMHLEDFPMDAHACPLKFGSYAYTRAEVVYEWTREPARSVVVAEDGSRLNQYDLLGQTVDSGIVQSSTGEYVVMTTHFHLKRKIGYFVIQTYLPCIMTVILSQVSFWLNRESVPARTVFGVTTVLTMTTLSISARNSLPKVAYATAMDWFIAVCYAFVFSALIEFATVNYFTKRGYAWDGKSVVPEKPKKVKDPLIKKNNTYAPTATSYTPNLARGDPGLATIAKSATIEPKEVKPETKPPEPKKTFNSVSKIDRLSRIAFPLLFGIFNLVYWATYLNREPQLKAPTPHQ
T1 sequence (P47870 26-512): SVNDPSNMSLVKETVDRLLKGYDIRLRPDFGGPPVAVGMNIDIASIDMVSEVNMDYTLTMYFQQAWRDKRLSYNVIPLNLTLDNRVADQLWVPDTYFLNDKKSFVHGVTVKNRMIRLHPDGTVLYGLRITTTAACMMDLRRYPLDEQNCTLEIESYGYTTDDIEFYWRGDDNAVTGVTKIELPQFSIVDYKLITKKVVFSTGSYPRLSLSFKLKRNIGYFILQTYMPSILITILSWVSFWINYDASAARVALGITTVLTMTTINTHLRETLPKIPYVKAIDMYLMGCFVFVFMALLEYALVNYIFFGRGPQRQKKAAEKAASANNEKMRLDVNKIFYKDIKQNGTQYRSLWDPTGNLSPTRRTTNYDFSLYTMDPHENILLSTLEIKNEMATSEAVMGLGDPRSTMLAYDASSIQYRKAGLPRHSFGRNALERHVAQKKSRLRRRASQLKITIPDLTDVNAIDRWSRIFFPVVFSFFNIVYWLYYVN
T1 sequence (P18507 40-475 partner): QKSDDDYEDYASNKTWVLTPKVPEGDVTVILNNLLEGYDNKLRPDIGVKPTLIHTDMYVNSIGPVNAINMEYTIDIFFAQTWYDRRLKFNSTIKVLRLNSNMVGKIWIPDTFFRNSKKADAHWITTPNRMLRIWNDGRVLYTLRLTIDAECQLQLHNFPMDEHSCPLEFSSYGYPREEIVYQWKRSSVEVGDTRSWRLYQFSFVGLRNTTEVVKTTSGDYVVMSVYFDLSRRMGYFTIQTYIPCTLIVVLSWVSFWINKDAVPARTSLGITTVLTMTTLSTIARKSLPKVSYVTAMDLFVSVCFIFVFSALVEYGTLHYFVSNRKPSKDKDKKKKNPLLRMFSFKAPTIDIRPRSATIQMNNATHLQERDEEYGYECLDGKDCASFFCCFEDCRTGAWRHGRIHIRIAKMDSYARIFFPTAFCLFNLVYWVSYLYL

Row | Structure (SMILES) | Emax at 10 µM [%]
1 | COC[C@]12CC[C@@](C)(O)C[C@@H]1CC[C@H]1[C@@H]3CC[C@H](C(=O)Cn4nnc(C)n4)[C@@]3(C)CC[C@@H]12 [Compound 17] | 1000 to 1500
2 | COC[C@]12CC[C@@](C)(O)C[C@@H]1CC[C@H]1[C@@H]3CC[C@H](C(=O)Cn4cc(C)cn4)[C@@]3(C)CC[C@@H]12 [Compound 20] | 500 to 1000
3 | COC[C@]12CC[C@@](C)(O)C[C@@H]1CC[C@H]1[C@@H]3CC[C@H](C(=O)Cn4cnc(C)c4)[C@@]3(C)CC[C@@H]12 [Compound 23] | 500 to 1000
4 | COC[C@]12CC[C@@](C)(O)C[C@@H]1CC[C@H]1[C@@H]3CC[C@H](C(=O)Cn4cc(S(C)(=O)=O)cn4)[C@@]3(C)CC[C@@H]12 [Compound 24] | 500 to 1000
5 | CCOC[C@]12CC[C@@](C)(O)C[C@@H]1CC[C@H]1[C@@H]3CC[C@H](C(=O)Cn4nnc(C)n4)[C@@]3(C)CC[C@@H]12 [Compound 25] | 500 to 1000

Each molecule was assayed against [35S]-TBPS binding in rat brain cortical membranes (assay: Steroid inhibition of [35S]-TBPS binding, rat brain cortical membranes). Conditions: 3 nM [35S]-TBPS, in the presence of 5 μM GABA, read-out: 35S-TBPS Radioligand Displacement (IC50).
Protocol: TBPS binding assays using rat brain cortical membranes in the presence of 5 μM GABA has been described (Gee et al, J. Pharmacol. Exp. Ther. 1987, 241, 346-353; Hawkinson et al, Mol. Pharmacol. 1994, 46, 977-985; Lewin, A. H et al., Mol. Pharmacol. 1989, 35, 189-194).
Briefly, cortices are rapidly removed following decapitation of carbon dioxide-anesthetized Sprague-Dawley rats (200-250 g). The cortices are homogenized in 10 volumes of ice-cold 0.32 M sucrose using a glass/teflon homogenizer and centrifuged at 1500×g for 10 min at 4° C. The resultant supernatants are centrifuged at 10,000×g for 20 min at 4° C. to obtain the P2 pellets. The P2 pellets are resuspended in 200 mM NaCl/50 mM Na—K phosphate pH 7.4 buffer and centrifuged at 10,000×g for 10 min at 4° C. This washing procedure is repeated twice and the pellets are resuspended in 10 volumes of buffer. Aliquots (100 μL) of the membrane suspensions are incubated with 3 nM [^35S]-TBPS and 5 μL aliquots of test drug dissolved in dimethyl sulfoxide (DMSO) (final 0.5%) in the presence of 5 μM GABA. The incubation is brought to a final volume of 1.0 mL with buffer. Nonspecific binding is determined in the presence of 2 μM unlabeled TBPS and ranged from 15 to 25%. Following a 90 min incubation at room temp, the assays are terminated by filtration through glass fiber filters (Schleicher and Schuell No. 32) using a cell harvester (Brandel) and rinsed three times with ice-cold buffer. Filter bound radioactivity is measured by liquid scintillation spectrometry. Non-linear curve fitting of the overall data for each drug averaged for each concentration is done using Prism (GraphPad). […] The concentration of test compound producing 50% inhibition (IC50) of specific binding and the maximal extent of inhibition (Imax) are determined for the individual experiments with the same model used for the overall data and then the mean±SEM.s of the individual experiments are calculated.
Various compounds are or can be screened to determine their potential as modulators of [^35S]-TBPS binding in vitro. These assays are or can be performed in accordance with the above discussed procedures.

Row | Structure (SMILES) | IC50 [nM]
6 | COC[C@]12CC[C@@](C)(O)C[C@@H]1CC[C@H]1[C@@H]3CC[C@H](C(=O)Cn4cccn4)[C@@]3(C)CC[C@@H]12 [Compound 2] | > 500
7 | COC[C@]12CC[C@@](C)(O)C[C@@H]1CC[C@H]1[C@@H]3CC[C@H](C(=O)CN4CCOCC4)[C@@]3(C)CC[C@@H]12 [Compound 4] | > 500
8 | COC[C@]12CC[C@@](C)(O)C[C@@H]1CC[C@H]1[C@@H]3CC[C@H](C(=O)CN4CCN(C(C)=O)CC4)[C@@]3(C)CC[C@@H]12 [Compound 5] | > 500
9 | CC(=O)N1CCN(CC(=O)[C@H]2CC[C@H]3[C@@H]4CC[C@H]5C[C@](C)(O)CC[C@]5(CO)[C@H]4CC[C@]23C)CC1 [Compound 6] | > 500
10 | C[C@@]1(O)CC[C@@]2(CO)[C@@H](CC[C@H]3[C@@H]4CC[C@H](C(=O)CN5CCN(S(C)(=O)=O)CC5)[C@@]4(C)CC[C@@H]32)C1 [Compound 7] | > 500
11 | C[C@@]1(O)CC[C@@]2(CO)[C@@H](CC[C@H]3[C@@H]4CC[C@H](C(=O)CN5CCOCC5)[C@@]4(C)CC[C@@H]32)C1 [Compound 9] | > 500
12 | C[C@@]1(O)CC[C@@]2(CO)[C@@H](CC[C@H]3[C@@H]4CC[C@H](C(=O)Cn5nccn5)[C@@]4(C)CC[C@@H]32)C1 [Compound 10] | > 500
13 | C[C@@]1(O)CC[C@@]2(CO)[C@@H](CC[C@H]3[C@@H]4CC[C@H](C(=O)Cn5cccn5)[C@@]4(C)CC[C@@H]32)C1 [Compound 11] | > 500
14 | C[C@@]1(O)CC[C@@]2(CO)[C@@H](CC[C@H]3[C@@H]4CC[C@H](C(=O)Cn5ccnn5)[C@@]4(C)CC[C@@H]32)C1 [Compound 12] | > 500
15 | COC[C@]12CC[C@@](C)(O)C[C@@H]1CC[C@H]1[C@@H]3CC[C@H](C(=O)Cn4nnc(C)n4)[C@@]3(C)CC[C@@H]12 [Compound 17] | > 500
16 | COC[C@]12CC[C@@](C)(O)C[C@@H]1CC[C@H]1[C@@H]3CC[C@H](C(=O)Cn4cnc(C)c4)[C@@]3(C)CC[C@@H]12 [Compound 23] | 100 to 500
17 | COC[C@]12CC[C@@](C)(O)C[C@@H]1CC[C@H]1[C@@H]3CC[C@H](C(=O)Cn4cc(S(C)(=O)=O)cn4)[C@@]3(C)CC[C@@H]12 [Compound 24] | 100 to 500
18 | CCOC[C@]12CC[C@@](C)(O)C[C@@H]1CC[C@H]1[C@@H]3CC[C@H](C(=O)Cn4nnc(C)n4)[C@@]3(C)CC[C@@H]12 [Compound 25] | 10 to 50
19 | COC[C@]12CC[C@@](C)(O)C[C@H]1CC[C@H]1[C@@H]3CC[C@H](C(=O)Cn4cc(C)cn4)[C@@]3(C)CC[C@@H]12 [Compound 28] | 50 to 100
20 | COC[C@]12CC[C@@](C)(O)C[C@@H]1CC[C@H]1[C@@H]3CC[C@H](C(=O)Cn4nc5ccccc5n4)[C@@]3(C)CC[C@@H]12 [Compound 40] | 10 to 50
21 | COC[C@]12CC[C@@H](O)C[C@@H]1CC[C@H]1[C@@H]3CC[C@H](C(=O)Cn4nccn4)[C@@]3(C)CC[C@@H]12 [Compound 90] | 50 to 100

Row | Structure (SMILES) | IC50 [nM]
22 | COC[C@]12CC[C@@H](O)C[C@@H]1CC[C@H]1[C@@H]3CC[C@H](C(=O)Cn4ccnn4)[C@@]3(C)CC[C@@H]12 [Compound 91] | 100 to 500
23 | CCOC(=O)c1ccn(CC(=O)[C@H]2CC[C@H]3[C@@H]4CC[C@H]5C[C@H](O)CC[C@]5(COC)[C@H]4CC[C@]23C)n1 [Compound 92] | 10 to 50
24 | COC[C@]12CC[C@@H](O)C[C@@H]1CC[C@H]1[C@@H]3CC[C@H](C(=O)Cn4cc(C)cn4)[C@@]3(C)CC[C@@H]12 [Compound 93] | 100 to 500
25 | COC[C@]12CC[C@@](C)(O)C[C@@H]1CC[C@H]1[C@@H]3CC[C@H](C(=O)Cn4nnc5c(F)c(F)ccc54)[C@@]3(C)CC[C@@H]12 [Compound 114] | 10 to 50
26 | COC[C@]12CC[C@@](C)(O)C[C@@H]1CC[C@H]1[C@@H]3CC[C@H](C(=O)Cn4nnc5ccc(F)c(F)c54)[C@@]3(C)CC[C@@H]12 [Compound 115] | 10 to 50
27 | COC[C@]12CC[C@@](C)(O)C[C@@H]1CC[C@H]1[C@@H]3CC[C@H](C(=O)Cn4cc(C#N)cn4)[C@@]3(C)CC[C@@H]12 [Compound 127] | 10 to 50
28 | COC[C@]12CC[C@@](C)(O)C[C@@H]1CC[C@H]1[C@@H]3CC[C@H](C(=O)Cn4nc5ccc(F)c(F)c5n4)[C@@]3(C)CC[C@@H]12 [Compound 128] | < 10
29 | COC[C@]12CC[C@@](C)(O)C[C@@H]1CC[C@H]1[C@@H]3CC[C@H](C(=O)Cn4nnc5c(F)c(Cl)ccc54)[C@@]3(C)CC[C@@H]12 [Compound 138] | 100 to 500
30 | COC[C@]12CC[C@@](C)(O)C[C@@H]1CC[C@H]1[C@@H]3CC[C@H](C(=O)Cn4nnc5ccc(OC(F)(F)F)cc54)[C@@]3(C)CC[C@@H]12 [Compound 144] | 50 to 100
31 | COC[C@]12CC[C@@](C)(O)C[C@@H]1CC[C@H]1[C@@H]3CC[C@H](C(=O)Cn4nnc5cc(OC(F)(F)F)ccc54)[C@@]3(C)CC[C@@H]12 [Compound 146] | 50 to 100
32 | COC[C@]12CC[C@@](C)(O)C[C@@H]1CC[C@H]1[C@@H]3CC[C@H](C(=O)Cn4cc5nccnc5n4)[C@@]3(C)CC[C@@H]12 [Compound 154] | > 500
33 | COC[C@]12CC[C@@](C)(O)C[C@@H]1CC[C@H]1[C@@H]3CC[C@H](C(=O)Cn4ncc5nccnc54)[C@@]3(C)CC[C@@H]12 [Compound 155] | 50 to 100
34 | COC[C@]12CC[C@@](C)(O)C[C@H]1CC[C@H]1[C@@H]3CC[C@H](C(=O)Cn4nnc5c(F)cccc54)[C@@]3(C)CC[C@@H]12 [Compound 157] | 10 to 50
35 | COC[C@]12CC[C@](O)(C(F)(F)F)C[C@H]1CC[C@H]1[C@@H]3CC[C@H](C(=O)Cn4nnc5c(F)c(F)ccc54)[C@@]3(C)CC[C@@H]12 [Compound 161] | 100 to 500
36 | COC[C@]12CC[C@](O)(C(F)(F)F)C[C@H]1CC[C@H]1[C@@H]3CC[C@H](C(=O)Cn4nc5ccc(F)c(F)c5n4)[C@@]3(C)CC[C@@H]12 [Compound 162] | 100 to 500
37 | CCOC[C@]12CC[C@@](C)(O)C[C@@H]1CC[C@H]1[C@@H]3CC[C@H](C(=O)Cn4cc(C#N)cn4)[C@@]3(C)CC[C@@H]12 [Compound 171] | 10 to 50
